Measured values as given in publication PMC7211837, “Design, synthesis, molecular modelling and in vitro screening of monoamine oxidase inhibitory activities of novel quinazolyl hydrazine derivatives” (Royal Society Open Science, 2020).
Entries after “also recorded” stand apart in the source; their conditions may differ. Marks after values point to notes of the source that are not given here. Values belong to the molecule of their own block, whether it stands above or below them.

Experiments:
[1] = target: T1, membrane-bound human MAO-A (Homo sapiens, UniProt P21397); assay: MAO-A inhibition, H2O2/horseradish peroxidase coupled fluorescence assay with tyramine; type: biochemical; conditions: for mechanism of inhibition of MAO-A: 30 min preincubation, dilution ×100, increasing substrate concentration; for inhibition at 10 µM: read-out: % inhibition at 10 μM hMAO-A; for inhibition of MAO-A compared with MAO-B in the screen: screen at 10 µM; for IC50 (μM) hMAO-A / IC50: tyramine at 2 × KM, seven concentrations 0.01–300 µM, ± s.d., two independent experiments; for IC50: read-out: IC50 (μM) hMAO-A
T1 sequence (P21397 1-527): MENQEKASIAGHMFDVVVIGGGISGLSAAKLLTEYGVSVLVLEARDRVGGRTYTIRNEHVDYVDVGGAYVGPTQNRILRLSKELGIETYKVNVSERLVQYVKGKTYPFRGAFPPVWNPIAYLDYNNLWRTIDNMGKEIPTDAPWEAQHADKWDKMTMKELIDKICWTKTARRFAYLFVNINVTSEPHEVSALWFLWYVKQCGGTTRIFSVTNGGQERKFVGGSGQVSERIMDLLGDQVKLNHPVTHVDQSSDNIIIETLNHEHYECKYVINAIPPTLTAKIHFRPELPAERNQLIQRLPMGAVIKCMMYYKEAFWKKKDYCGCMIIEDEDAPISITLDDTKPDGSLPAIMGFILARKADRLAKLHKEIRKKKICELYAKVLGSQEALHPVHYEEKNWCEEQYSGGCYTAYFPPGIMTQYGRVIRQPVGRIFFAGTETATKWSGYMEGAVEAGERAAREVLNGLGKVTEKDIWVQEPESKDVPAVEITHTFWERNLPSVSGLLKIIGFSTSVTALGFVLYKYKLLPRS
Description: (§1) Incomplete inhibition of activity could arise either from indirect effects on these enzymes or from the compounds acting as substrates at the highest concentrations.
(§2) The activity of MAO was determined using the coupled assay method of [41, 42] in which the product, H2O2, acts with horseradish peroxidase to convert 10-acetyl-3,7-dihydroxyphenoxazine to the fluorescent resorufin. […] The data were analysed using the equation for a three-parameter curve in Graphpad PRISM v. 4, and the % inhibition calculated from the top and bottom of the resulting curve.

[2] = target: T2, membrane-bound human MAO-B (Homo sapiens, UniProt P27338); assay: MAO-B inhibition, H2O2/horseradish peroxidase coupled fluorescence assay with tyramine; type: biochemical; conditions: for maximum inhibition (%) hMAO-B: from dose–response curve, in parentheses after IC50, given if less than 95%; for inhibition at 10 µM: read-out: % inhibition at 10 μM hMAO-B, 10 μM compound, tyramine 0.32 mM (2 × KM), average of two independent experiments; for IC50 (μM) hMAO-B / IC50: tyramine at 2 × KM, seven concentrations 0.01–300 µM, ± s.d., two independent experiments; for IC50: read-out: IC50 (μM) hMAO-B
T2 sequence (P27338 1-520): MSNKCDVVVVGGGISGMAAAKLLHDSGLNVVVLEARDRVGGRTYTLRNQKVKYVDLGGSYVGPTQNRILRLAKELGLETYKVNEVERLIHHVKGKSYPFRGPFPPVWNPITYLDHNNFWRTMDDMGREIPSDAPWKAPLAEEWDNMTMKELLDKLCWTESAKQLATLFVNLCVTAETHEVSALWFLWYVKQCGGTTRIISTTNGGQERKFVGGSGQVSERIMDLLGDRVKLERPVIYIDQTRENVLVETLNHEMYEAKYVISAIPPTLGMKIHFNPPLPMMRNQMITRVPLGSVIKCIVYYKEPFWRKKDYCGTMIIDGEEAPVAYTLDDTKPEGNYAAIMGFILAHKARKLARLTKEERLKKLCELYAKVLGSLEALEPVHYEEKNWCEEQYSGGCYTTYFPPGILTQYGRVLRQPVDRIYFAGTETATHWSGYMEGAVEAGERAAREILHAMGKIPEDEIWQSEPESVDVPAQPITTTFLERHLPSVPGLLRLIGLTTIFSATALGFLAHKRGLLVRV
Description: as §1, §2

[3] = target: T3, MAO-A (Homo sapiens, UniProt P21397); assay: Oxidation of compound by MAO-A in the standard coupled assay in the absence of tyramine; type: biochemical
T3 sequence (P21397 1-527): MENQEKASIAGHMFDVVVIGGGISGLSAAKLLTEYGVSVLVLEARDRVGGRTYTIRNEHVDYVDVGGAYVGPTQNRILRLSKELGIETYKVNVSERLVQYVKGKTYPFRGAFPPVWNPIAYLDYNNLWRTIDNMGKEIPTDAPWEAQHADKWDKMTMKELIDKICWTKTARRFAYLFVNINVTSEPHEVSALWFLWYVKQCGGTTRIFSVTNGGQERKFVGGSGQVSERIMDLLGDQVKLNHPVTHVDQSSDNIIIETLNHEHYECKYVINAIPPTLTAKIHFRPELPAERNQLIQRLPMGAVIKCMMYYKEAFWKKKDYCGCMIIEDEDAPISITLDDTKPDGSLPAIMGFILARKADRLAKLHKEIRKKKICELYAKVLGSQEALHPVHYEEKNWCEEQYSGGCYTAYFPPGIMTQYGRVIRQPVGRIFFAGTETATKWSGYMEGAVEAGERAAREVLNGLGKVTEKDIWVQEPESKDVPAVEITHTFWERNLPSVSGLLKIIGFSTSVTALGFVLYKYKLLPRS
Description: (§3) Compound 6 in the screening assay with 10 µM inhibitor gave an increased rate of appearance of fluorescence indicating faster production of the product H2O2 (not the slower rate observed with other compounds that inhibit MAO activity).
(§4) Figure 3. Oxidation of 6 (squares) but not 12d (triangles) by MAO-A. The concentration of compound was varied in the standard assay coupled to the production of H2O2 but in the absence of the substrate tyramine.
(§5) The activity of MAO was determined using the coupled assay method of [41, 42] in which the product, H2O2, acts with horseradish peroxidase to convert 10-acetyl-3,7-dihydroxyphenoxazine to the fluorescent resorufin. […] For compounds that gave more than 30% inhibition, the IC50 was determined using seven concentrations of each compound (0.01–300 μM) with substrate at 2 × KM. […] The data were analysed using the equation for a three-parameter curve in Graphpad PRISM v. 4, and the % inhibition calculated from the top and bottom of the resulting curve.

[4] = system: MAO-A; parameters: method as in PMID 16356714, PMID 20708306, PMID 19043245, PMID 25707011, PMID 25922182; conditions: lead structure of Chart 1, earlier series of the group ref 21–25; cited from earlier work
[5] = substrate: COc1cc(/C=N/NC(=O)CNC(=O)c2cc(Cl)ccc2/N=C/c2ccccc2)ccc1O; assay: Oxidation of compound by MAO-A in the standard coupled assay in the absence of tyramine; type: biochemical, human; conditions: other: compound as substrate
Description: as §3, §4, §5

[6] = 10 μM compound, tyramine 0.8 mM (2 × KM), average of two independent experiments

inhibition at 10 µM [1, 6]: 6%
inhibition at 10 µM [2]: 26%
melting point: 242 to 245 °C
Molecule: Cc1nc2ccccc2c(=O)n1CC(=O)NN=Cc1ccccc1 [12a, N'-Benzylidene-2-(2-methyl-4-oxoquinazolin-3(4H)-yl)acetohydrazide]

inhibition at 10 µM [1, 6]: 16%
inhibition at 10 µM [2]: 16%
IC50 [2]: > 100 µM
melting point: 192 to 195 °C
Molecule: Cc1nc2ccccc2c(=O)n1CC(=O)NN=Cc1ccc(O)cc1 [12b, N'-(4-Hydroxybenzylidene)-2-(2-methyl-4-oxoquinazolin-3(4H)-yl)acetohydrazide]
inhibition of MAO-A compared with MAO-B in the screen [1]: equal inhibition of MAO-A and MAO-B; also recorded: equally inhibited

inhibition at 10 µM [1, 6]: 5%
inhibition at 10 µM [2]: 21%
melting point: > 229 °C (dec.)
Molecule: COc1ccc(C=NNC(=O)Cn2c(C)nc3ccccc3c2=O)cc1 [12c, N'-(4-Methoxybenzylidene)-2-(2-methyl-4-oxoquinazolin-3(4H)-yl)acetohydrazide]

The next lines start with the molecule.

Molecule: COc1cc(C=NNC(=O)CN2C(=O)c3cc(Cl)ccc3NC2c2ccccc2)ccc1O (centres unmarked) [5h, 2-(6-Chloro-4-oxo-2-phenyl-1,4-dihydroquinazolin-3(2H)-yl)-N'-(4-hydroxy-3-methoxybenzylidene)-acetohydrazide]
mechanism of inhibition of MAO-A [1]: competitive inhibition
selectivity MAO-A versus MAO-B ([1]; from IC50 values on MAO-A and MAO-B): non-selective
inhibition at 10 µM [1, 6]: 70%
inhibition of MAO-A compared with MAO-B in the screen [1]: equal inhibition of MAO-A and MAO-B; also recorded: equally inhibited
IC50 (μM) hMAO-A [1]: micromolar potency
IC50 [1]: 0.31 ± 0.11 µM
maximum inhibition (%) hMAO-B [2]: full inhibition
inhibition at 10 µM [2]: 72%
IC50 (μM) hMAO-B [2]: micromolar affinity
IC50 [2]: 0.44 ± 0.1 µM
melting point: 240 to 242 °C

Molecule: COc1cc(C=NNC(=O)Cn2c(C)nc3ccccc3c2=O)ccc1O [12d, N'-(4-Hydroxy-3-methoxybenzylidene)-2-(2-methyl-4-oxoquinazolin-3(4H)-yl)acetohydrazide]
mechanism of inhibition of MAO-A [1]: competitive inhibition
maximum inhibition (%) hMAO-A ([1]; from dose–response curve, in parentheses after IC50, given if less than 95%): 32%
inhibition at 10 µM [1, 6]: 27%
IC50 [1]: 1.41 ± 0.47 µM
mechanism of inhibition of MAO-B ([2]; 30 min preincubation, dilution ×100, increasing substrate concentration): competitive inhibition
maximum inhibition (%) hMAO-B [2]: full inhibition
inhibition at 10 µM [2]: 52%
IC50 (μM) hMAO-B [2]: micromolar affinity
IC50 [2]: 3.62 ± 0.69 µM
melting point: 258 to 260 °C

Molecule: COc1cc(/C=N/NC(=O)CNC(=O)c2cc(Cl)ccc2/N=C/c2ccccc2)ccc1O [compound 6, 2-(((E)-benzylidene)amino)-5-chloro-N-(2-(2-((E)-4-hydroxy-3-methoxybenzylidene)hydrazinyl)-2-oxoethyl)benzamide]
% inhibition at 10 μM hMAO-A [1, 6]: none
IC50 (μM) hMAO-A [1]: (rate increases)^c
inhibition at 10 µM [2]: 12%
IC50 [2]: 9 ± 2.3 µM
H2O2 production / oxidation by MAO-A in the absence of the normal substrate ([3]; absence of tyramine): gave a measurable rate of H2O2 production
Vmax for oxidation by MAO-A as % of the Vmax for tyramine ([3]; same conditions, tyramine run in parallel): 77%
melting point: 257 to 259 °C

Molecule: C/C(=N/NC(=O)Cn1c(=O)c(Cc2ccccc2)nc2ccccc21)c1ccc(O)cc1 [lead structure]
MAO-A activity PIC50 [4]: 7.8

B1: MAO-A (Homo sapiens) (protein)
chain: MENQEKASIAGHMFDVVVIGGGISGLSAAKLLTEYGVSVLVLEARDRVGGRTYTIRNEHVDYVDVGGAYVGPTQNRILRLSKELGIETYKVNVSERLVQYVKGKTYPFRGAFPPVWNPIAYLDYNNLWRTIDNMGKEIPTDAPWEAQHADKWDKMTMKELIDKICWTKTARRFAYLFVNINVTSEPHEVSALWFLWYVKQCGGTTRIFSVTNGGQERKFVGGSGQVSERIMDLLGDQVKLNHPVTHVDQSSDNIIIETLNHEHYECKYVINAIPPTLTAKIHFRPELPAERNQLIQRLPMGAVIKCMMYYKEAFWKKKDYCGCMIIEDEDAPISITLDDTKPDGSLPAIMGFILARKADRLAKLHKEIRKKKICELYAKVLGSQEALHPVHYEEKNWCEEQYSGGCYTAYFPPGIMTQYGRVIRQPVGRIFFAGTETATKWSGYMEGAVEAGERAAREVLNGLGKVTEKDIWVQEPESKDVPAVEITHTFWERNLPSVSGLLKIIGFSTSVTALGFVLYKYKLLPRS
Km [5]: 35.5 µM
